Results as given in patent publication US7504400B2, “MTP inhibiting aryl piperydines or piperazines substituted with 5-membered heterocycles” (Janssen Pharmaceutica N.V., priority 2004, dated 2009).
Structures can show the parent of a compound that is named as a salt.

tested on: Secretion of ApoB; experiment: Quantification of the secretion of ApoB in HepG2 cells; assay type: cell-based; conditions: Homo sapiens, HepG2, 24 h, 24 hours of incubation with test compound, immunoprecipitation of apoB from medium, read-out: pIC50 value (=-log IC50 value), secretion of ApoB (converted)
Summary of the method: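 At 70% confluency, HepG2 cells in MEM with 10% FCS received compound or DMSO carrier (0.4% final) for 24 h. Secreted apoB in cleared medium immunoprecipitated with sheep anti-apoB then rabbit anti-sheep antibody (24 h each, 8° C); pellet radioactivity counted by liquid scintillation; IC50 expressed as pIC50.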

| Structure (SMILES) | IC50 |
| --- | --- |
| CC(C)n1ncn(-c2ccc(N3CCN(C(C(=O)Nc4ccc5c(c4)CCC5)c4cccnc4)CC3)cc2)c1=O (stereo not drawn) [Compound 209] | 31.6 to 316 nM |
| CCOC(=O)c1cc(NC(=O)C(Cc2ccccc2)C2CCN(c3ccc(-n4cnn(C(C)c5ccccc5)c4=O)cc3)CC2)ccc1C (stereo not drawn) [Compound 373] | 316 to 3160 nM |
| CCOC(=O)c1cc(NC(=O)C(Cc2ccccc2)C2CCN(c3ccc(-n4cnn(C(C)C)c4=O)cc3)CC2)ccc1C (stereo not drawn) [Compound 374] | 316 to 3160 nM |
| CCOC(=O)c1ccc(CNC(=O)C(c2ccccc2)C2CCN(c3ccc(-n4cnn(C(C)c5ccccc5)c4=O)cc3)CC2)cc1C (stereo not drawn) [Compound 375] | 31.6 to 316 nM |
| CCOC(=O)c1ccc(CNC(=O)C(c2ccccc2)C2CCN(c3ccc(-n4cnn(C(C)C)c4=O)cc3)CC2)cc1C (stereo not drawn) [Compound 376] | 31.6 to 316 nM |
| CCOC(=O)c1ccc(CNC(=O)CC2CCN(c3ccc(-n4cnn(C(C)c5ccccc5)c4=O)cc3)CC2)cc1C (stereo not drawn) [Compound 377] | 31.6 to 316 nM |
| CCOC(=O)c1ccc(CNC(=O)CC2CCN(c3ccc(-n4cnn(C(C)C)c4=O)cc3)CC2)cc1C [Compound 378] | 31.6 to 316 nM |
| CCOC(=O)c1ccc(CNC(=O)C(Cc2ccccc2)C2CCN(c3ccc(-n4cnn(C(C)c5ccccc5)c4=O)cc3)CC2)cc1C (stereo not drawn) [Compound 379] | 316 to 3160 nM |
| CCOC(=O)c1ccc(CNC(=O)C(Cc2ccccc2)C2CCN(c3ccc(-n4cnn(C(C)C)c4=O)cc3)CC2)cc1C (stereo not drawn) [Compound 380] | 316 to 3160 nM |
| CCOC(=O)c1cc(CNC(=O)C(c2ccccc2)C2CCN(c3ccc(-n4cnn(C(C)c5ccccc5)c4=O)cc3)CC2)ccc1C (stereo not drawn) [Compound 381] | < 31.6 nM |
| CCOC(=O)c1cc(CNC(=O)CC2CCN(c3ccc(-n4cnn(C(C)C)c4=O)cc3)CC2)ccc1C [Compound 382] | 31.6 to 316 nM |
| CCOC(=O)c1cc(CNC(=O)C(Cc2ccccc2)C2CCN(c3ccc(-n4cnn(C(C)c5ccccc5)c4=O)cc3)CC2)ccc1C (stereo not drawn) [Compound 383] | 316 to 3160 nM |
| CCOC(=O)c1cc(CNC(=O)C(Cc2ccccc2)C2CCN(c3ccc(-n4cnn(C(C)C)c4=O)cc3)CC2)ccc1C (stereo not drawn) [Compound 384] | 316 to 3160 nM |
| CCOC(=O)CC1CCN(c2ccc(-n3cnn(C(C)C)c3=O)cc2)CC1 [Compound 385] | 316 to 3160 nM |
| CCOC(=O)CC1CCN(c2ccc(-n3cnn(C(C)c4ccccc4)c3=O)cc2)CC1 (stereo not drawn) [Compound 386] | 316 to 3160 nM |
| CCOC(=O)[C@@H](C)NC(=O)CC1CCN(c2ccc(-n3cnn(C(C)c4ccccc4)c3=O)cc2)CC1 (stereo partly drawn) [Compound 391] | 316 to 3160 nM |
| CCOC(=O)[C@@H](NC(=O)CC1CCN(c2ccc(-n3cnn(C(C)c4ccccc4)c3=O)cc2)CC1)C(C)C (stereo partly drawn) [Compound 392] | 316 to 3160 nM |
| CCOC(=O)[C@H](NC(=O)CC1CCN(c2ccc(-n3cnn(C(C)c4ccccc4)c3=O)cc2)CC1)C(C)C (stereo partly drawn) [Compound 393] | 31.6 to 316 nM |

Second part, the compound after the results:

| IC50 | Structure (SMILES) |
| --- | --- |
| 31.6 to 316 nM | CCOC(=O)[C@H](NC(=O)CC1CCN(c2ccc(-n3cnn(C(C)c4ccccc4)c3=O)cc2)CC1)c1ccccc1 (stereo partly drawn) [Compound 394] |
| 316 to 3160 nM | CCOC(=O)[C@@H](NC(=O)CC1CCN(c2ccc(-n3cnn(C(C)c4ccccc4)c3=O)cc2)CC1)c1ccccc1 (stereo partly drawn) [Compound 395] |
| 316 to 3160 nM | CCOC(=O)[C@@H](Cc1ccccc1)NC(=O)CC1CCN(c2ccc(-n3cnn(C(C)c4ccccc4)c3=O)cc2)CC1 (stereo partly drawn) [Compound 396] |
| 316 to 3160 nM | CCOC(=O)CC[C@H](NC(=O)CC1CCN(c2ccc(-n3cnn(C(C)c4ccccc4)c3=O)cc2)CC1)C(=O)OCC (stereo partly drawn) [Compound 397] |
| 316 to 3160 nM | CCOC(=O)[C@H](CC(C)C)NC(=O)CC1CCN(c2ccc(-n3cnn(C(C)c4ccccc4)c3=O)cc2)CC1 (stereo partly drawn) [Compound 398] |
| 316 to 3160 nM | COC(=O)C(NC(=O)CC1CCN(c2ccc(-n3cnn(C(C)c4ccccc4)c3=O)cc2)CC1)C(C)C (stereo not drawn) [Compound 401] |
| 316 to 3160 nM | CCOC(=O)CCNC(=O)CC1CCN(c2ccc(-n3cnn(C(C)c4ccccc4)c3=O)cc2)CC1 (stereo not drawn) [Compound 402] |
| 316 to 3160 nM | CCOC(=O)C(C)NC(=O)CC1CCN(c2ccc(-n3cnn(C(C)c4ccccc4)c3=O)cc2)CC1 (stereo not drawn) [Compound 403] |
| 316 to 3160 nM | CCOC(=O)CC(NC(=O)CC1CCN(c2ccc(-n3cnn(C(C)c4ccccc4)c3=O)cc2)CC1)c1ccc2c(c1)OCO2 (stereo not drawn) [Compound 404] |

tested on: not given; experiment: not given; conditions: not given

| Structure (SMILES) | melting point |
| --- | --- |
| CCCN(CCC)C(=O)C(CCN1CCN(c2ccc(-n3cnn(C(C)C)c3=O)cc2)CC1)c1ccccc1 (stereo not drawn) (as salt: salt) [Compound 2] | 165 °C |
| CC(C)n1ncn(-c2ccc(N3CCN(C(C(=O)Nc4ccc5c(c4)CCC5)c4cccnc4)CC3)cc2)c1=O (stereo not drawn) [Compound 209] | 198 to 200 °C |
| CCOC(=O)C(c1cccnc1)N1CCN(c2ccc(-n3cnn(C(C)C)c3=O)cc2)CC1 (stereo not drawn) [Compound 302] | 142 to 143 °C |
